Measured values from ChEMBL document CHEMBL1201862, “PubChem BioAssay data set” (2004).
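Assay format: 96-well plates, 48-hour exposure. Abbreviation: GI50, concentration required for 50% inhibition of growth.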 Active and inactive are the calls of the source. Cut-off read from the data, not from the text of the source: active = GI50 up to about 1.1 µM and inactive = higher.

Tests used:
Experiment in all cases: NCI tumour cell line growth inhibition, 48 h
KM12 = test system: KM12
M19-MEL = test system: M19-MEL
SW-620 = test system: SW-620
EKVX = test system: EKVX
HCC 2998 = test system: HCC 2998
DLD-1 = test system: DLD-1
RXF 393 = test system: RXF 393
Malme-3M = test system: Malme-3M
NCI-H226 = test system: NCI-H226
SNB-78 = test system: SNB-78
SR = test system: SR
786-0 = test system: 786-0
HT-29 = test system: HT-29
NCI-H460 = test system: NCI-H460
U-251 = test system: U-251
MOLT-4 = test system: MOLT-4
SF-268 = test system: SF-268
OVCAR-8 = test system: OVCAR-8
NCI-H522 = test system: NCI-H522
UACC-257 = test system: UACC-257
LXFL 529 = test system: LXFL 529
SN12C = test system: SN12C
RPMI-8226 = test system: RPMI-8226
UACC-62 = test system: UACC-62
DMS-273 = test system: DMS-273
OVCAR-3 = test system: OVCAR-3
LOX IMVI = test system: LOX IMVI
SF-295 = test system: SF-295
ACHN = test system: ACHN
IGROV-1 = test system: IGROV-1
COLO 205 = test system: COLO 205
SNB-19 = test system: SNB-19
HCT-15 = test system: HCT-15
NCI-H23 = test system: NCI-H23
TK-10 = test system: TK-10
SNB-75 = test system: SNB-75
HOP-62 = test system: HOP-62
HCT-116 = test system: HCT-116
SK-OV-3 = test system: SK-OV-3
KM-20L2 = test system: KM-20L2
SF-539 = test system: SF-539
HL-60 = test system: HL-60
A549 = test system: A549
M14 = test system: M14
DMS-114 = test system: DMS-114
UO-31 = test system: UO-31
CCRF-CEM = test system: CCRF-CEM
K562 = test system: K562
SK-MEL-28 = test system: SK-MEL-28
HOP-92 = test system: HOP-92
OVCAR-4 = test system: OVCAR-4
XF498 = test system: XF498
A498 = test system: A498
SK-MEL-2 = test system: SK-MEL-2
SK-MEL-5 = test system: SK-MEL-5
OVCAR-5 = test system: OVCAR-5

## COCOc1ccc(Cn2c(=O)n(C)c(=O)c3c2ncn3C)cc1[N+](=O)[O-]
KM12
  GI50: > 100 µM (inactive)
M19-MEL
  GI50: > 100 µM (inactive)
SW-620
  GI50: > 100 µM (inactive)
EKVX
  GI50: 54.7 µM (inactive)
HCC 2998
  GI50: > 100 µM (inactive)
DLD-1
  GI50: > 100 µM (inactive)
RXF 393
  GI50: > 100 µM (inactive)
Malme-3M
  GI50: > 100 µM (inactive)
NCI-H226
  GI50: 46.3 µM (inactive)
SNB-78
  GI50: > 100 µM (inactive)
SR
  GI50: > 100 µM (inactive)
786-0
  GI50: > 100 µM (inactive)
HT-29
  GI50: 10.2 µM (inactive)
NCI-H460
  GI50: > 100 µM (inactive)
U-251
  GI50: > 100 µM (inactive)
MOLT-4
  GI50: 91.8 µM (inactive)
SF-268
  GI50: > 100 µM (inactive)
OVCAR-8
  GI50: > 100 µM (inactive)
NCI-H522
  GI50: > 100 µM (inactive)
UACC-257
  GI50: 57.5 µM (inactive)
LXFL 529
  GI50: 79.8 µM (inactive)
SN12C
  GI50: > 100 µM (inactive)
RPMI-8226
  GI50: 66.2 µM (inactive)
UACC-62
  GI50: > 100 µM (inactive)
DMS-273
  GI50: > 100 µM (inactive)
OVCAR-3
  GI50: > 100 µM (inactive)
LOX IMVI
  GI50: > 100 µM (inactive)
SF-295
  GI50: 25.7 µM (inactive)
ACHN
  GI50: > 100 µM (inactive)
IGROV-1
  GI50: > 100 µM (inactive)
COLO 205
  GI50: > 100 µM (inactive)
SNB-19
  GI50: > 100 µM (inactive)
HCT-15
  GI50: > 100 µM
NCI-H23
  GI50: 80.2 µM (inactive)
TK-10
  GI50: > 100 µM (inactive)
SNB-75
  GI50: 59.6 µM (inactive)
HOP-62
  GI50: > 10 µM (inactive)
HCT-116
  GI50: > 100 µM (inactive)
SK-OV-3
  GI50: 49.3 µM (inactive)
KM-20L2
  GI50: > 100 µM (inactive)
SF-539
  GI50: > 100 µM (inactive)
HL-60
  GI50: > 100 µM (inactive)
A549
  GI50: > 100 µM (inactive)
M14
  GI50: > 100 µM (inactive)
DMS-114
  GI50: 44.6 µM (inactive)
UO-31
  GI50: > 100 µM (inactive)
CCRF-CEM
  GI50: > 100 µM (inactive)
K562
  GI50: > 100 µM (inactive)
SK-MEL-28
  GI50: > 100 µM (inactive)

## Cc1ccc(S(=O)(=O)NC(=O)C2(Br)S(=O)(=O)OCCOS2(=O)=O)cc1
M19-MEL
  GI50: > 100 µM (inactive)
EKVX
  GI50: > 100 µM (inactive)
HCC 2998
  GI50: > 100 µM (inactive)
DLD-1
  GI50: > 100 µM (inactive)
RXF 393
  GI50: > 100 µM (inactive)
Malme-3M
  GI50: > 100 µM (inactive)
NCI-H226
  GI50: > 100 µM (inactive)
HOP-92
  GI50: > 100 µM (inactive)
SNB-78
  GI50: > 100 µM (inactive)
SR
  GI50: > 100 µM (inactive)
786-0
  GI50: > 100 µM (inactive)
HT-29
  GI50: > 100 µM (inactive)
NCI-H460
  GI50: > 100 µM (inactive)
U-251
  GI50: > 100 µM (inactive)
MOLT-4
  GI50: > 100 µM (inactive)
SF-268
  GI50: > 100 µM (inactive)
OVCAR-4
  GI50: > 100 µM (inactive)
XF498
  GI50: > 100 µM (inactive)
OVCAR-8
  GI50: > 100 µM (inactive)
NCI-H522
  GI50: > 100 µM (inactive)
UACC-257
  GI50: > 100 µM (inactive)
LXFL 529
  GI50: > 100 µM (inactive)
SN12C
  GI50: > 100 µM (inactive)
A498
  GI50: > 100 µM (inactive)
RPMI-8226
  GI50: > 100 µM (inactive)
UACC-62
  GI50: > 100 µM (inactive)
SK-MEL-2
  GI50: > 100 µM (inactive)
DMS-273
  GI50: > 100 µM (inactive)
OVCAR-3
  GI50: > 100 µM (inactive)
SK-MEL-5
  GI50: > 100 µM (inactive)
LOX IMVI
  GI50: > 100 µM (inactive)
ACHN
  GI50: > 100 µM (inactive)
IGROV-1
  GI50: > 100 µM (inactive)
COLO 205
  GI50: > 100 µM (inactive)
SNB-19
  GI50: > 100 µM (inactive)
HCT-15
  GI50: > 100 µM
NCI-H23
  GI50: > 100 µM (inactive)
TK-10
  GI50: > 100 µM (inactive)
SNB-75
  GI50: > 100 µM (inactive)
HOP-62
  GI50: > 100 µM (inactive)
OVCAR-5
  GI50: > 100 µM (inactive)
HCT-116
  GI50: > 100 µM (inactive)
SK-OV-3
  GI50: > 100 µM (inactive)
KM-20L2
  GI50: > 100 µM (inactive)
SF-539
  GI50: > 100 µM (inactive)
HL-60
  GI50: > 100 µM (inactive)
A549
  GI50: > 100 µM (inactive)
M14
  GI50: > 100 µM (inactive)
DMS-114
  GI50: > 100 µM (inactive)
UO-31
  GI50: > 100 µM (inactive)
CCRF-CEM
  GI50: > 100 µM (inactive)
K562
  GI50: > 100 µM (inactive)
SK-MEL-28
  GI50: > 100 µM (inactive)
